In US20110081296A1, “SYSTEMS AND METHODS FOR IDENTIFICATION OF CILIOPATHY THERAPEUTICS” (RUTGERS, THE STATE UNIVERSITY OF NEW JERSEY, priority 2009, published 2011):

Legend:
Assay type in all cases: cell-based, Caenorhabditis elegans
[1] = tested on: my15 sperm; test: in vitro sperm crawling on glass slides after chemical activation, cil-1(my15) mutant; conditions: isolated my15 sperm
Method: (§1) Epifluorescence and Nomarski analyses were performed on a Zeiss Axioplan2 imaging system equipped with 10×, 63× (NA 1.4), 100× (NA 1.4) objectives and a Photometrics Cascade 512B CCD camera using Metamorph software. 3D deconvolution of Z-stacks of epifluorescent image were performed by AutoQuantX program (MediaCybernetics). Confocal images were collected using a 510 LSM META ZEISS. Optical sections were collected between 0.4-1.0 μm and projected as Z-series that were stored as TIFF files and manipulated using Adobe PhotoShopTM. Worms were anesthetized with 1 mM levamisole, mounted on agar pads and maintained at room temperature. For time-lapse microscopy of sperm motility, Nomarski images were taken every 15 seconds for up to 15 minutes. Neuronal images shown in figures are projected epifluorescent Z-stacks af[…] deconvolution except for FIGS. 2C and 2G, which are projected Z-stacks of confocal sections. For electron microscopy, sperm were prepared as known in the art, except that the samples were embedded in LX112 (Ladd Research Industries Inc., Burlington, Va.). To isolate spermatids, virgin L4 males were isolated for 2-3 days in 20 degrees and cut with a 25g needle on a glass slide in Sperm Media (SM) pH 7.9 with 10 mM Dextrose. For in vitro activation, 20 ug/ml of Pronase or 100 nM monensin (for in vitro sperm crawling experiments) was added to SM as described in [21]. […]

[2] = tested on: WT sperm; test: in vitro sperm crawling on glass slides after chemical activation, wild type; conditions: n=7
Method: as §1

[3] = tested on: my15 spermatids; test: in vitro sperm activation of isolated male spermatids, cil-1(my15) mutant; conditions: 100 nM
Method: (§2) To isolate spermatids, virgin L4 males were isolated for 2-3 days in 20 degrees and cut with a 25g needle on a glass slide in Sperm Media (SM) pH 7.9 with 10 mM Dextrose. For in vitro activation, 20 ug/ml of Pronase or 100 nM monensin (for in vitro sperm crawling experiments) was added to SM as described in [21]. For wortmannin treatment, a 100× wortmannin stock solution in DMSO was added to reach the final concentration of 100 nM into SM. During sperm activation, a round spermatid develops into a motile spermatozoon with a pseudopod (FIG. 16A). This process can be mimicked in vitro by chemical activators such as the ionophore monensin or Pronase. Within 15 min of Pronase application, the majority of WT male spermatids (63.4%, n=347) extend pseudopods (FIGS. 16B and 16B′), and the average length of spermatozoa is 8.13±1.11 μm (±standard deviation [SD], n=95) (FIG. 16B′). […] The diameter of my15 spermatids is also slightly smaller (6.22±0.54 μm, n=136) than WT (6.73±0.65 μm, n=110, p=8.08E-07). In vivo sperm activation defects were observed also in my15 hermaphrodites. […] Thus, cil-1 positively regulates sperm activation in vitro and in vivo. […] To this end, 1 nM, 10 nM, and 100 nM wortmannin, a pharmacological inhibitor of PI 3-kinases that produce PI(3,4,5)P3 from PI(4,5)P2 [27], were applied to WT and my15 spermatids.

[4] = tested on: WT spermatids; test: in vitro sperm activation of isolated male spermatids, wild type; conditions: of 1, 10, 100 nM tested
Method: as §2

| Compound | sperm motility [1] | sperm crawl rate [2] [μm/s] | activation of male-derived sperm [3] | most effective concentration for in vitro activation [4] [nM] |
| --- | --- | --- | --- | --- |
| CC[C@@]1([C@@H]2O[C@@H]([C@H]3O[C@@](O)(CO)[C@H](C)C[C@@H]3C)C[C@@H]2C)CC[C@H]([C@]2(C)CC[C@]3(C[C@H](O)[C@@H](C)[C@@H]([C@@H](C)[C@@H](OC)[C@H](C)C(=O)O)O3)O2)O1 [monensin] | immotile | 0.33±0.04 | – | – |
| COC[C@H]1OC(=O)c2coc3c2[C@@]1(C)C1=C(C3=O)[C@@H]2CCC(=O)[C@@]2(C)C[C@H]1OC(C)=O [wortmannin] | – | – | not activated | 100 |
